According to PubChem BioAssay (NCI):
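The compound was tested at five concentrations on cells cultured in 96-well plates, with a 48-hour exposure period. The concentration for 50% growth inhibition is given as GI50. TGI: concentration producing complete growth inhibition.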

Tests used:
Experiment in all cases: DTP human tumour cell line panel, 48 h
786-0 renal = test system: 786-0 renal
A498 renal = test system: A498 renal
A549 NSCLC = test system: A549 NSCLC
ACHN renal = test system: ACHN renal
BT-549 breast = test system: BT-549 breast
CAKI-1 renal = test system: CAKI-1 renal
CCRF-CEM leukemia = test system: CCRF-CEM leukemia
COLO 205 colon = test system: COLO 205 colon
DU-145 prostate = test system: DU-145 prostate
EKVX NSCLC = test system: EKVX NSCLC
HCC-2998 colon = test system: HCC-2998 colon
HCT-116 colon = test system: HCT-116 colon
HCT-15 colon = test system: HCT-15 colon
HL-60(TB) leukemia = test system: HL-60(TB) leukemia
HOP-62 NSCLC = test system: HOP-62 NSCLC
HOP-92 NSCLC = test system: HOP-92 NSCLC
HS 578T breast = test system: HS 578T breast
HT29 colon = test system: HT29 colon
IGROV1 ovarian = test system: IGROV1 ovarian
K-562 leukemia = test system: K-562 leukemia
KM12 colon = test system: KM12 colon
LOX IMVI melanoma = test system: LOX IMVI melanoma
M14 melanoma = test system: M14 melanoma
MALME-3M melanoma = test system: MALME-3M melanoma
MCF7 breast = test system: MCF7 breast
MDA-MB-231 breast = test system: MDA-MB-231 breast
MDA-MB-435 = test system: MDA-MB-435
MOLT-4 leukemia = test system: MOLT-4 leukemia
NCI-H226 lung = test system: NCI-H226 lung
NCI-H23 lung = test system: NCI-H23 lung
NCI-H460 lung = test system: NCI-H460 lung
NCI-H522 lung = test system: NCI-H522 lung
NCI/ADR-RES ovarian = test system: NCI/ADR-RES ovarian
OVCAR-3 ovarian = test system: OVCAR-3 ovarian
OVCAR-4 ovarian = test system: OVCAR-4 ovarian
OVCAR-5 ovarian = test system: OVCAR-5 ovarian
OVCAR-8 ovarian = test system: OVCAR-8 ovarian
PC-3 prostate = test system: PC-3 prostate
RPMI-8226 leukemia = test system: RPMI-8226 leukemia
RXF 393 renal = test system: RXF 393 renal
SF-268 CNS = test system: SF-268 CNS
SF-295 CNS = test system: SF-295 CNS
SF-539 CNS = test system: SF-539 CNS
SK-MEL-2 melanoma = test system: SK-MEL-2 melanoma
SK-MEL-28 melanoma = test system: SK-MEL-28 melanoma
SK-MEL-5 melanoma = test system: SK-MEL-5 melanoma
SK-OV-3 ovarian = test system: SK-OV-3 ovarian
SN12C renal = test system: SN12C renal
SNB-19 CNS = test system: SNB-19 CNS
SNB-75 CNS = test system: SNB-75 CNS
SR leukemia = test system: SR leukemia
SW-620 colon = test system: SW-620 colon
T-47D breast = test system: T-47D breast
TK-10 renal = test system: TK-10 renal
U251 CNS = test system: U251 CNS
UACC-257 melanoma = test system: UACC-257 melanoma
UACC-62 melanoma = test system: UACC-62 melanoma
UO-31 renal = test system: UO-31 renal

Compound `O=C(N/N=C/c1ccc(Cl)s1)c1[nH]c2ccc(Br)cc2c1-c1ccccc1` has a GI50 (786-0 renal) of 418 nM, a TGI (786-0 renal) greater than 41500 nM and a GI50 (A498 renal) of 28300 nM. It also gave a TGI (A498 renal) greater than 100000 nM, a GI50 (A549 NSCLC) of 376 nM and a TGI (A549 NSCLC) greater than 48200 nM. For the same compound, the GI50 (ACHN renal) was 361 nM, the TGI (ACHN renal) was greater than 61500 nM and the GI50 (BT-549 breast) was 274 nM. For the same compound, the TGI (BT-549 breast) was 765 nM, the GI50 (CAKI-1 renal) was 450 nM and the TGI (CAKI-1 renal) was 47000 nM. The GI50 (CCRF-CEM leukemia) was 354 nM, the TGI (CCRF-CEM leukemia) was greater than 86400 nM and the GI50 (COLO 205 colon) was 488 nM. It also gave a TGI (COLO 205 colon) of 1680 nM, a GI50 (DU-145 prostate) of 346 nM and a TGI (DU-145 prostate) of 34100 nM. It also gave a GI50 (EKVX NSCLC) of 1180 nM, a TGI (EKVX NSCLC) greater than 100000 nM and a GI50 (HCC-2998 colon) of 453 nM. It also gave a TGI (HCC-2998 colon) of 46000 nM, a GI50 (HCT-116 colon) of 231 nM and a TGI (HCT-116 colon) of 7060 nM. The GI50 (HCT-15 colon) was 277 nM, the GI50 (HL-60(TB) leukemia) was 226 nM and the TGI (HL-60(TB) leukemia) was 612 nM. It also gave a GI50 (HOP-62 NSCLC) of 766 nM, a TGI (HOP-62 NSCLC) of 41600 nM and a GI50 (HOP-92 NSCLC) of 1370 nM. For the same compound, the TGI (HOP-92 NSCLC) was 68300 nM, the GI50 (HS 578T breast) was 496 nM and the TGI (HS 578T breast) was 34900 nM. The GI50 (HT29 colon) was 319 nM, the TGI (HT29 colon) was 10700 nM and the GI50 (IGROV1 ovarian) was 386 nM. It also gave a TGI (IGROV1 ovarian) of 21400 nM, a GI50 (K-562 leukemia) of 235 nM and a TGI (K-562 leukemia) greater than 73800 nM. For the same compound, the GI50 (KM12 colon) was 402 nM, the TGI (KM12 colon) was 27900 nM and the GI50 (LOX IMVI melanoma) was 308 nM. It also gave a TGI (LOX IMVI melanoma) of 1350 nM, a GI50 (M14 melanoma) of 318 nM and a TGI (M14 melanoma) greater than 100000 nM. It also gave a GI50 (MALME-3M melanoma) of 489 nM, a TGI (MALME-3M melanoma) greater than 74400 nM and a GI50 (MCF7 breast) of 266 nM. For the same compound, the TGI (MCF7 breast) was 4210 nM, the GI50 (MDA-MB-231 breast) was 290 nM and the TGI (MDA-MB-231 breast) was 3090 nM. The GI50 (MDA-MB-435) was 196 nM, the TGI (MDA-MB-435) was 384 nM and the GI50 (MOLT-4 leukemia) was 330 nM. The TGI (MOLT-4 leukemia) was greater than 21400 nM, the GI50 (NCI-H226 lung) was 313 nM and the TGI (NCI-H226 lung) was 6930 nM. It also gave a GI50 (NCI-H23 lung) of 426 nM, a TGI (NCI-H23 lung) of 38800 nM and a GI50 (NCI-H460 lung) of 335 nM. It also gave a TGI (NCI-H460 lung) of 3270 nM, a GI50 (NCI-H522 lung) of 71.9 nM and a TGI (NCI-H522 lung) of 242 nM. For the same compound, the GI50 (NCI/ADR-RES ovarian) was 144 nM, the GI50 (OVCAR-3 ovarian) was 321 nM and the TGI (OVCAR-3 ovarian) was 4180 nM. For the same compound, the GI50 (OVCAR-4 ovarian) was 594 nM, the TGI (OVCAR-4 ovarian) was 69800 nM and the GI50 (OVCAR-5 ovarian) was 424 nM. The TGI (OVCAR-5 ovarian) was greater than 100000 nM, the GI50 (OVCAR-8 ovarian) was 214 nM and the TGI (OVCAR-8 ovarian) was 714 nM. For the same compound, the GI50 (PC-3 prostate) was 450 nM, the TGI (PC-3 prostate) was greater than 100000 nM and the GI50 (RPMI-8226 leukemia) was 356 nM. It also gave a TGI (RPMI-8226 leukemia) greater than 52500 nM, a GI50 (RXF 393 renal) of 547 nM and a TGI (RXF 393 renal) of 5010 nM. For the same compound, the GI50 (SF-268 CNS) was 574 nM, the TGI (SF-268 CNS) was greater than 100000 nM and the GI50 (SF-295 CNS) was 275 nM. It also gave a TGI (SF-295 CNS) of 3220 nM, a GI50 (SF-539 CNS) of 122 nM and a TGI (SF-539 CNS) of 429 nM. It also gave a GI50 (SK-MEL-2 melanoma) of 325 nM, a TGI (SK-MEL-2 melanoma) of 21000 nM and a GI50 (SK-MEL-28 melanoma) of 627 nM. The TGI (SK-MEL-28 melanoma) was greater than 100000 nM, the GI50 (SK-MEL-5 melanoma) was 284 nM and the TGI (SK-MEL-5 melanoma) was 878 nM. For the same compound, the GI50 (SK-OV-3 ovarian) was 409 nM, the TGI (SK-OV-3 ovarian) was 91200 nM and the GI50 (SN12C renal) was 350 nM. The TGI (SN12C renal) was 32900 nM, the GI50 (SNB-19 CNS) was 331 nM and the TGI (SNB-19 CNS) was greater than 90200 nM. For the same compound, the GI50 (SNB-75 CNS) was 259 nM, the TGI (SNB-75 CNS) was 3450 nM and the GI50 (SR leukemia) was 290 nM. It also gave a TGI (SR leukemia) of 27600 nM, a GI50 (SW-620 colon) of 375 nM and a TGI (SW-620 colon) greater than 100000 nM. For the same compound, the GI50 (T-47D breast) was 2310 nM, the TGI (T-47D breast) was greater than 86800 nM and the GI50 (TK-10 renal) was 4190 nM. The TGI (TK-10 renal) was greater than 100000 nM, the GI50 (U251 CNS) was 322 nM and the TGI (U251 CNS) was 18200 nM. The GI50 (UACC-257 melanoma) was 508 nM, the TGI (UACC-257 melanoma) was greater than 100000 nM and the GI50 (UACC-62 melanoma) was 334 nM. For the same compound, the TGI (UACC-62 melanoma) was 25900 nM, the GI50 (UO-31 renal) was 520 nM and the TGI (UO-31 renal) was greater than 100000 nM.
